Counter-ions that a name gives are not always drawn. Like-named read-outs stand apart in the source and are kept apart here.
Columns and labels:
[1] = test system: IL-17 production by CD4+ T cells under conditions which favor Th17 differentiation; test: Human Th17 assay (IL-17 production by CD4 T cells); format: cell-based
[2] = target: human RORγt LBD fused to the DNA binding domain of the GAL4 protein (Homo sapiens (Human), UniProt P51449); test: RORγt (LBD) reporter assay in HEK293T cells; format: cell-based; design: RORγt (LBD) Reporter Assay, % inhibition: dose or concentration left out as unconfirmed; conditions: for inhibition at 6 µM: HEK-293T, read-out: RORγt (LBD) Reporter Assay, % inhibition @ 6 μM, @ 6 μM
[3] = target: human RORγt ligand binding domain (RORγt LBD) (Homo sapiens (Human), UniProt P51449); test: RORγt ThermoFluor assay (thermal shift, binding affinity Kd)
[4] = read-out: ThermoFluor Assay, Kd
[5] = read-out: ThermoFluor ® Assay, Kd

Chain of human RORγt LBD fused to the DNA binding domain of the GAL4 protein (P51449 258-518): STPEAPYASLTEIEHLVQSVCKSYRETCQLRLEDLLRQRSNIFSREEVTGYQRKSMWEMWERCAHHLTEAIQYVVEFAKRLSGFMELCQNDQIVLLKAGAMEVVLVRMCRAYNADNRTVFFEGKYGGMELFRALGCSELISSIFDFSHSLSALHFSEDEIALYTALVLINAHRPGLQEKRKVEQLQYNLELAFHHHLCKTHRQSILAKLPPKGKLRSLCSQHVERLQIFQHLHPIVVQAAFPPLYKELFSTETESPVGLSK
Chain of human RORγt ligand binding domain (RORγt LBD) (P51449 other isoform, or with tags, fused parts or gaps): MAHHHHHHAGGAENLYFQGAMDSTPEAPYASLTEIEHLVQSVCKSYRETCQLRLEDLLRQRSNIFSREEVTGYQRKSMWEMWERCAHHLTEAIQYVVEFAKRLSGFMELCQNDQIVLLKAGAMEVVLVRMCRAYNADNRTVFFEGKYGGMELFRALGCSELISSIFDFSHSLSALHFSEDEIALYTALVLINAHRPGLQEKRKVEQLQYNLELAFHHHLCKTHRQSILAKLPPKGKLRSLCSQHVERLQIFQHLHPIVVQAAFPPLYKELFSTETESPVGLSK

Row | IC50 [2] [nM] | Kd [3, 4] [nM] | Compound | IC50 ([1]; Homo sapiens) [nM] | further results
1 |  |  | CCOc1c(OC)nc2ccc(C(O)(c3ccc(C(F)(F)F)nc3)c3cncn3C)cc2c1Cl (single isomer, unassigned) [Example 91c, (4-Chloro-3-ethoxy-2-methoxyquinolin-6-yl)(1-methyl-1H-imidazol-5-yl)[6-(trifluoromethyl)pyridin-3-yl]methanol] | 520 | 
2 |  |  | COc1nc2ccc(C(O)(c3ccc(Cl)cc3)c3cncn3C)cc2c(Cl)c1CN1CCC(n2cccn2)CC1 (single isomer, unassigned) [Example 101c, (3-((4-(1H-Pyrazol-1-yl)piperidin-1-yl)methyl)-4-chloro-2-methoxyquinolin-6-yl)(4-chlorophenyl)(1-methyl-1H-imidazol-5-yl)methanol] | 360 | 
3 |  |  | Cn1cncc1C(O)(c1ccc(Cl)cc1)c1ccc2nc(N3CCC3)c(OCC(F)(F)F)c(Cl)c2c1 (single isomer, unassigned) [Example 90c, [2-Azetidin-1-yl-4-chloro-3-(2,2,2-trifluoroethoxy)quinolin-6-yl](4-chlorophenyl)(1-methyl-1H-imidazol-5-yl)methanol] | 200 | 
4 |  |  | CC(C)c1c(Cl)nc2ccc(C(O)(c3cccnc3)c3cccc(Cl)c3)cc2c1Cl (stereo not drawn) [Example 19, (3-Chlorophenyl) [2,4-dichloro-3-(1-methylethyl)quinolin-6-yl]pyridin-3-ylmethanol.TFA] | 1300 | 
5 |  |  | CC(C)(C)c1c(/C=C/c2ccccc2)nc2ccc(C(O)(c3cccnc3)c3cccc(Cl)c3)cc2c1Cl (stereo not drawn) [Example 27, {3-tert-Butyl-4-chloro-2-[(E)-2-phenylethenyl]quinolin-6-yl}(3-chlorophenyl)pyridin-3-ylmethanol.TFA] | ~3000 | 
6 |  |  | COc1nc2ccc(C(O)(c3ccccc3)C3CCN(C(C)=O)CC3)cc2c(Cl)c1C1CCOCC1 (single isomer, unassigned) [Example 7b, 1-(4-((4-Chloro-2-methoxy-3-(tetrahydro-2H-pyran-4-yl)quinolin-6-yl)(hydroxy)(phenyl)methyl)piperidin-1-yl)ethanone] | 210 | 
7 |  |  | COc1nc2ccc(C(O)(c3ccc(Cl)cc3)c3cncn3C)cc2c(Cl)c1OC(C)C (single isomer, unassigned) [Example 99b, [4-Chloro-2-methoxy-3-(1-methylethoxy)quinolin-6-yl](4-chlorophenyl)(1-methyl-1H-imidazol-5-yl)methanol] | 1200 | 
8 |  |  | Cc1nc(C)c(C(O)(c2ccc3nc(N4CCC4)c(OC(C)C)c(Cl)c3c2)c2cnnn2C)s1 (single isomer, unassigned) [Example 82c, [2-Azetidin-1-yl-4-chloro-3-(1-methylethoxy)quinolin-6-yl](2,4-dimethyl-1,3-thiazol-5-yl)(1-methyl-1H-1,2,3-triazol-5-yl)methanol] | 1.2 | 
9 |  |  | COc1nc2ccc(C(O)(c3ccc(C(F)(F)F)nc3)c3cncn3C)cc2c(Cl)c1OCC1CC1 (single isomer, unassigned) [Example 88c, [4-Chloro-3-(cyclopropylmethoxy)-2-methoxyquinolin-6-yl](1-methyl-1H-imidazol-5-yl)[6-(trifluoromethyl)pyridin-3-yl]methanol] | 310 | 
10 |  |  | COc1nc2ccc(C(O)(c3ccccc3)C3CCN(C(C)=O)CC3)cc2c(Cl)c1OC(C)C (single isomer, unassigned) [Example 84b, (1-Acetylpiperidin-4-yl)[4-chloro-2-methoxy-3-(1-methylethoxy)quinolin-6-yl]phenylmethanol] | 5.4 | 
11 |  |  | COc1nc2ccc(C(O)(c3cnc(C)n3C)C3CN(C(C)=O)C3)cc2c(Cl)c1CN1CCC(C(F)(F)F)CC1 (single isomer, unassigned) [Example 124b, 1-(3-((4-Chloro-2-methoxy-3-((4-(trifluoromethyl)piperidin-1-yl)methyl)quinolin-6-yl)(1,2-dimethyl-1H-imidazol-5-yl)(hydroxy)methyl)azetidin-1-yl)ethanone] |  | IC50 [1]: > 6000 nM
12 | > 6000 | 2000 | Cc1c(-c2ccc3c(cnn3C)c2)nc2ccc(C(O)(c3cccnc3)c3cccc(Cl)c3)cc2c1Cl (stereo not drawn) [Example 24, [4-Chloro-3-methyl-2-(1-methyl-1H-indazol-5-yl)quinolin-6-yl](3-chlorophenyl)pyridin-3-ylmethanol] |  | inhibition at 6 µM [2]: 29%
13 |  |  | COc1nc2ccc(C(O)(c3sc(C)nc3C)c3cnnn3C)cc2c(Cl)c1C (single isomer, unassigned) [Example 13c, (4-Chloro-2-methoxy-3-methylquinolin-6-yl)(2,4-dimethylthiazol-5-yl)(1-methyl-1H-1,2,3-triazol-5-yl)methanol] | 65 | 
14 | > 6000 |  | Cc1ccc(C(O)(c2ccc3nc(Cl)c(CC(F)(F)F)c(N4CCC4)c3c2)c2cnnn2C)c(C)n1 (stereo not drawn) [Example 238a, [4-(Azetidin-1-yl)-2-chloro-3-(2,2,2-trifluoroethyl)-6-quinolyl]-(2,6-dimethyl-3-pyridyl)-(3-methyltriazol-4-yl)methanol] |  | RORγt (LBD) Reporter Assay, % inhibition [2]: −8%; Kd [3, 5]: > 24000 nM
15 | > 6000 |  | Cc1ncc(C(O)c2ccc3nc(Cl)c(OC(C)C)c(Cl)c3c2)n1C (stereo not drawn) [Example 172, (2,4-dichloro-3-isopropoxyquinolin-6-yl)(1,2-dimethyl-1H-imidazol-5-yl)methanol] |  | RORγt (LBD) Reporter Assay, % inhibition [2]: 12%; Kd [3, 5]: 12000 nM
16 | > 6000 | 1200 | COc1nc2ccc(C(O)(c3ccc(C(F)(F)F)nc3)c3cncn3C)cc2c(Cl)c1OCc1cccnc1 (single isomer, unassigned) [Example 76b, [4-Chloro-2-methoxy-3-(pyridin-3-ylmethoxy)quinolin-6-yl](1-methyl-1H-imidazol-5-yl)[6-(trifluoromethyl)pyridin-3-yl]methanol] |  | RORγt (LBD) Reporter Assay, % inhibition @ 6 μM [2]: −17%
17 | > 6000 | 110 | COc1nc2ccc(C(O)(c3ccc(C(F)(F)F)nc3)c3cncn3C)cc2c(Cl)c1OCc1cccnc1 (single isomer, unassigned) [Example 76c, [4-Chloro-2-methoxy-3-(pyridin-3-ylmethoxy)quinolin-6-yl](1-methyl-1H-imidazol-5-yl)[6-(trifluoromethyl)pyridin-3-yl]methanol] |  | RORγt (LBD) Reporter Assay, % inhibition @ 6 μM [2]: −35%
18 | > 6000 | 39 | COc1nc2ccc(C(O)(c3ccc(C(F)(F)F)nc3)c3cncn3C)cc2c(Cl)c1CCC1CCN(C(C)=O)CC1 (stereo not drawn) [Example 32, {3-[2-(1-Acetylpiperidin-4-yl)ethyl]-4-chloro-2-methoxyquinolin-6-yl}(1-methyl-1H-imidazol-5-yl)[6-(trifluoromethyl)pyridin-3-yl]methanol] |  | inhibition at 6 µM [2]: 32%
19 | > 6000 | 4800 | COc1nc2ccc(C(O)(c3ccc(C(F)(F)F)nc3)c3cncn3C)cc2c(Cl)c1C1=CCN(C)CC1 (stereo not drawn) [Example 33, [4-Chloro-2-methoxy-3-(1-methyl-1,2,3,6-tetrahydropyridin-4-yl)quinolin-6-yl](1-methyl-1H-imidazol-5-yl)[6-(trifluoromethyl)pyridin-3-yl]methanol.TFA] |  | inhibition at 6 µM [2]: -32%
20 | > 6000 | 130 | COc1nc2ccc(C(O)(c3cncn3C)C3CCN(S(C)(=O)=O)CC3)cc2c(Cl)c1CC1CCOCC1 (single isomer, unassigned) [Example 6c, (4-Chloro-2-methoxy-3-((tetrahydro-2H-pyran-4-yl)methyl)quinolin-6-yl)(1-methyl-1H-imidazol-5-yl)(1-(methylsulfonyl)piperidin-4-yl)methanol] |  | RORγt (LBD) Reporter Assay, % inhibition @ 6 μM [2]: 26%
21 | > 6000 | 53 | COc1nc2ccc([C@](O)(c3ccccc3)C3CCN(C(C)=O)CC3)cc2c(Cl)c1CC1CCOCC1 [Example 4c] |  | RORγt (LBD) Reporter Assay, % inhibition @ 6 μM [2]: −6%
22 | > 6000 |  | Cc1ccc(C(O)(c2ccc3nc(Cl)c(CC(F)(F)F)c(N4CCC4)c3c2)c2cnnn2C)c(C)n1 (single isomer, unassigned) [Example 238b, [4-(Azetidin-1-yl)-2-chloro-3-(2,2,2-trifluoroethyl)-6-quinolyl]-(2,6-dimethyl-3-pyridyl)-(3-methyltriazol-4-yl)methanol] |  | RORγt (LBD) Reporter Assay, % inhibition [2]: 9%; Kd [3, 5]: 13000 nM
23 | > 6000 | 5000 | COc1nc2ccc(C(O)(c3cnc(C)n3C)c3cnc(C)n3C)cc2c(Cl)c1OC1CCCN(C)C1 (single isomer, unassigned) [Example 51c, (4-Chloro-2-methoxy-3-{[1-methylpiperidin-3-yl]oxy}quinolin-6-yl)[bis(1,2-dimethyl-1H-imidazol-5-yl)]methanol] |  | inhibition at 6 µM [2]: -4%
24 | > 6000 | 4900 | COc1nc2ccc(C(O)(c3ccc(C)nc3C)c3cnnn3C)cc2c(Cl)c1OCCN(C)C (single isomer, unassigned) [Example 74b, {4-Chloro-3-[2-(dimethylamino)ethoxy]-2-methoxyquinolin-6-yl}(2,6-dimethylpyridin-3-yl)(1-methyl-1H-1,2,3-triazol-5-yl)methanol] |  | inhibition at 6 µM [2]: -9%
25 | > 6000 | 1000 | COc1nc2ccc(C(O)(c3ccc(C)nc3C)c3cnnn3C)cc2c(Cl)c1OCCN1CCCC1 (single isomer, unassigned) [Example 67b, [4-Chloro-2-methoxy-3-(2-pyrrolidin-1-ylethoxy)quinolin-6-yl](2,6-dimethylpyridin-3-yl)(1-methyl-1H-1,2,3-triazol-5-yl)methanol] |  | inhibition at 6 µM [2]: -37%
26 | > 6000 | 9 | COc1nc2ccc(C(O)(c3cnc(C)n3C)c3cnc(C)n3C)cc2c(Cl)c1OCc1ccccc1 [Example 75, [3-(benzyloxy)-4-chloro-2-methoxyquinolin-6-yl][bis(1,2-dimethyl-1H-imidazol-5-yl)]methanol] |  | inhibition at 6 µM [2]: -1%

Reference: US10201546B2, “Quinolinyl modulators of RORγt” (Janssen Pharmaceutica NV, priority 2013, dated 2019)
